The source of these data is patent US20160244437A1, “SUBSTITUTED PHENYLALANINE DERIVATIVES” (BAYER PHARMA AKTIENGESELLSCHAFT, priority 2013, published 2016).

Counter-ions that a name gives are not always drawn.

One assay deals with human and animal plasma. The experiment in a line: Determination of anticoagulatory activity: activated partial thromboplastin time (aPTT) in plasma. The note with it: concentration of test substance which brings about a 1.5-fold extension of the aPTT; plasma in vitro, C.K. Prest kit. The method, boiled down:
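Citrated plasma (human, mouse, rat, rabbit, pig, dog) incubated with varying compound concentrations and cephalin/kaolin PTT reagent for 3 minutes at 37° C.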

The next assay has as its target T1, human factor XIa (Homo sapiens, UniProt P03951).
T1 construct: purchased Kordia
The experiment in a line: Measurement of FXIa inhibition (fluorogenic peptide substrate Boc-Glu(OBzl)-Ala-Arg-AMC). The note with it: factor XIa from Kordia 0.45 nM, 15 min pre-incubation, 30 min at 22° C., fluorescence. It counts as biochemical.

T1 sequence (P03951 388-625 limits assumed): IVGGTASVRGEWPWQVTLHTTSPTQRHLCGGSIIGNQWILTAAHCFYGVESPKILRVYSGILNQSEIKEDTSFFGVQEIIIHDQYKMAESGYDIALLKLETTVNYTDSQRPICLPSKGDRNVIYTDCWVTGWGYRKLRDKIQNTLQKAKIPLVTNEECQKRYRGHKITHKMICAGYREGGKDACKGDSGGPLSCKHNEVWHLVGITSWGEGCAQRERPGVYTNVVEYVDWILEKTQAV
T1 sequence (P03951 19-387 partner limits assumed): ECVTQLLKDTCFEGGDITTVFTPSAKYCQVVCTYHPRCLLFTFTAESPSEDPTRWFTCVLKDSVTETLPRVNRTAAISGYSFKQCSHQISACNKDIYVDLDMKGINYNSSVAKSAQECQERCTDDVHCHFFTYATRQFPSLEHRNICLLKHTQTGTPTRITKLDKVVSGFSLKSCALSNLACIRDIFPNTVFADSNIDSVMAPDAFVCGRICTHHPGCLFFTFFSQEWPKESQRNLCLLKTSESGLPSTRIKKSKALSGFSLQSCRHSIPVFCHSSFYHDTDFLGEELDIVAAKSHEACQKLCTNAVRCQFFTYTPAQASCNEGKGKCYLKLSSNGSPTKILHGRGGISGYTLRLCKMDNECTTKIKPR

The IC50 is the concentration at which inhibition is half-maximal. Consider `Cc1nc(N)ccc1-c1cccc(C[C@H](NC(=O)[C@H]2CC[C@H](CN)CC2)C(=O)Nc2ccc(-c3nnn[nH]3)cc2)c1` [Example 66, N-alpha-{[trans-4-(Aminomethyl)cyclohexyl]carbonyl}-3-(6-amino-2-methylpyridin-3-yl)-N-[4-(1H-tetrazol-5-yl)phenyl]-L-phenylalaninamide hydrochloride], for which the aPTT with human and animal plasma was determined as 0.12 µmol/L. The compound also gave a concentration for half-maximal inhibition (IC50) on human factor XIa of 3.3 nM.

`COCc1nnc(-c2ccc(NC(=O)[C@H](Cc3cccc(-c4cccc5ncccc45)c3)NC(=O)[C@H]3CC[C@H](CN)CC3)cc2)[nH]1` [Example 105, N-alpha-{[trans-4-(Aminomethyl)cyclohexyl]carbonyl}-3-quinolin-5-yl-N-{4-[5-(methoxymethyl)-4H-1,2,4-triazol-3-yl]phenyl}-L-phenylalaninamide hydrochloride] yielded an aPTT in the assay with human and animal plasma of 0.14 µmol/L. It took 13 nM to reach half-maximal inhibition against human factor XIa (IC50).

The compound `CN(C)CCNC(=O)c1cccc(-c2cccc(C[C@H](NC(=O)[C@H]3CC[C@H](CN)CC3)C(=O)Nc3ccc(-c4nnn[nH]4)cc3)c2)c1` [Example 39, 3′-[(2S)-2-({[trans-4-(Aminomethyl)cyclohexyl]carbonyl}amino)-3-oxo-3-{[4-(1H-tetrazol-5-yl)phenyl]amino}propyl]-N-[2-(dimethylamino)ethyl]biphenyl-3-carboxamide hydrochloride] had an aPTT in the assay with human and animal plasma of 0.22 µmol/L. Besides, the IC50 against human factor XIa was 8.9 nM.
